From patent publication US10201533B2, “Substituted quinolizine derivatives useful as HIV integrase inhibitors” (priority 2013, dated 2019)
Like-named read-outs stand apart in the source and are kept apart here.

System: HIV-1 (NL4-3 strain)
Assay: microbe, parasite or virus in culture
Assay type: cell-based
Conditions: MT4-GFP cells infected with HIV-1 NL4-3, IP or IC50 from 4-parameter dose response curve
[1] = Human immunodeficiency virus 1, NL43, 0% normal human serum (NHS), read-out: WILD TYPE CELL ASSAY Viking IP (0% NHS)
[2] = Human immunodeficiency virus 1, NL43, 100% normal human serum (NHS), read-out: WILD TYPE CELL ASSAY Viking IP (100% NHS)
[3] = 100% normal human serum (NHS), read-out: WILD TYPE CELL ASSAY Viking IP (100% NHS)
[4] = 0% normal human serum (NHS), read-out: WILD TYPE CELL ASSAY Viking IP (0% NHS)

| SMILES | IC50 [1] | IC50 [2] | IC50 [3] | IC50 [4] |
| --- | --- | --- | --- | --- |
| CC1(C)CCC[C@@]2(C)C(=O)c3c(O)c(=O)c(C(=O)NCc4ccc(F)cc4F)cn3C[C@@]12O [Compound 109] | 3.2 nM | 714 nM | – | – |
| COC1(C)CCn2cc(C(=O)NCc3ccc(F)cc3F)c(=O)c(O)c2C1=O (centres unmarked) [Compound 51] | 3.6 nM | – | 2200 nM | – |
| COCCC[C@@]1(C)C(=O)c2c(O)c(=O)c(C(=O)NCc3ccccc3F)cn2C[C@@H]1OC [Compound 89] | – | – | 73 nM | 2.1 nM |
| COCCC[C@@]1(C)C(=O)c2c(O)c(=O)c(C(=O)NCc3c(F)cc(F)cc3F)cn2C[C@@H]1OC [Compound 93] | – | – | 52 nM | 1.2 nM |
| COCC[C@@]1(C)C(=O)c2c(O)c(=O)c(C(=O)NCc3c(F)cccc3F)cn2C[C@@H]1OC [Compound 70] | 1.9 nM | 80 nM | – | – |
| C[C@@]12CC=CCO[C@@H]1Cn1cc(C(=O)NCc3ccc(F)cc3F)c(=O)c(O)c1C2=O [Compound 48] | – | – | 913 nM | 1.7 nM |
| C[C@]12CCCO[C@H]1Cn1cc(C(=O)NCc3ccccc3F)c(=O)c(O)c1C2=O (single isomer, unassigned) [Compound 21] | 2.4 nM | 385 nM | – | – |
| CN1CCC[C@]2(C)C(=O)c3c(O)c(=O)c(C(=O)NCc4ccc(F)cc4F)cn3C[C@H]12 [Compound 124] | 3.2 nM | 53 nM | – | – |
| COCCC[C@]1(C)C(=O)c2c(O)c(=O)c(C(=O)NCc3ccc(F)cc3F)cn2C[C@@H]1OC [Compound 75] | – | – | 13 nM | 0.5 nM |
| COc1c2n(cc(-c3nnc(Cc4ccc(F)cc4F)s3)c1=O)CC(OC)C(C)(C)C2=O (centres unmarked) [Compound 6] | – | – | – | 10 nM |
| CO[C@]12CCCC[C@@]1(C)C(=O)c1c(O)c(=O)c(C(=O)NCc3ccc(F)cc3F)cn1C2 [Compound 113] | 1.3 nM | > 8000 nM | – | – |
| COCCO[C@]12CCCC[C@@]1(C)C(=O)c1c(O)c(=O)c(C(=O)NCc3ccc(F)cc3F)cn1C2 [Compound 115] | 1.4 nM | 225 nM | – | – |
| COCO[C@@]12CCCC[C@]1(C)C(=O)c1c(O)c(=O)c(C(=O)NCc3ccc(F)cc3F)cn1C2 [Compound 110] | 2.1 nM | 140 nM | – | – |
| COCC[C@@]1(C)C(=O)c2c(O)c(=O)c(C(=O)NCc3ccccc3F)cn2C[C@@H]1OC [Compound 66] | 2.5 nM | 126 nM | – | – |
| C[C@@]12CCCO[C@@H]1Cn1cc(C(=O)NCc3cccc(Cl)c3F)c(=O)c(O)c1C2=O (single isomer, unassigned) [Compound 15] | 0.5 nM | 73 nM | – | – |
| COC1(C)CCn2cc(C(=O)NCc3ccc(F)cc3F)c(=O)c(O)c2C1=O (centres unmarked) [Compound 52] | – | – | > 8400 nM | 3.4 nM |
| COCC[C@]1(C)C(=O)c2c(O)c(=O)c(C(=O)NCc3c(F)cccc3F)cn2C[C@@H]1OC [Compound 72] | – | – | 467 nM | 2.2 nM |
| COCC[C@]1(C)C(=O)c2c(O)c(=O)c(C(=O)NCc3ccccc3F)cn2C[C@@H]1OC [Compound 68] | 1.8 nM | – | 604 nM | – |
| C[C@]12CCCO[C@@H]1Cn1cc(C(=O)NCc3cccc(Cl)c3F)c(=O)c(O)c1C2=O (single isomer, unassigned) [Compound 35] | 0.4 nM | – | 337 nM | – |

| SMILES | IC50 [1] | IC50 [2] | IC50 [3] | IC50 [4] |
| --- | --- | --- | --- | --- |
| C[C@@]12COCO[C@H]1Cn1cc(C(=O)NCc3ccc(F)cc3F)c(=O)c(O)c1C2=O [Compound 12] | – | – | 595 nM | 2.6 nM |
| C[C@]12CCCO[C@H]1Cn1cc(C(=O)NCc3ccc(F)c(Cl)c3)c(=O)c(O)c1C2=O (single isomer, unassigned) [Compound 30] | 2.8 nM | > 8400 nM | – | – |
| CC1(C)CCn2cc(C(=O)NCc3cc4ccccn4n3)c(=O)c(O)c2C1=O [Compound 3] | 6.5 nM | – | – | – |
| COCC[C@@]1(C)C(=O)c2c(O)c(=O)c(C(=O)NCc3cccc(Cl)c3F)cn2C[C@@H]1OC [Compound 63] | – | – | 249 nM | 0.9 nM |
| CC1(C)CCC[C@]2(C)C(=O)c3c(O)c(=O)c(C(=O)NCc4ccc(F)cc4F)cn3C[C@]12O [Compound 108] | 2 nM | 105 nM | – | – |
| CC1(O)CCn2cc(C(=O)NCc3ccc(F)cc3F)c(=O)c(O)c2C1=O (racemic) [Compound 53] | 64 nM | > 8400 nM | – | – |
| C[C@]12CCCN[C@H]1Cn1cc(C(=O)NCc3ccc(F)cc3F)c(=O)c(O)c1C2=O [Compound 122] | – | – | 35 nM | 3.3 nM |
| C[C@]12CCCC[C@@]1(O)Cn1cc(C(=O)NCc3ccc(F)c(Cl)c3)c(=O)c(O)c1C2=O [Compound 97] | 2.4 nM | 151 nM | – | – |
| C[C@]12CCCO[C@H]1Cn1cc(C(=O)NCc3ccc4c(c3)OCO4)c(=O)c(O)c1C2=O (single isomer, unassigned) [Compound 29] | 17 nM | > 8400 nM | – | – |
| CO[C@@]12CCCCC[C@]1(C)C(=O)c1c(O)c(=O)c(C(=O)NCc3ccc(F)cc3F)cn1C2 [Compound 118] | 1.4 nM | 873 nM | – | – |
| C[C@]12CCCCO[C@H]1Cn1cc(C(=O)NCc3cccc(Cl)c3F)c(=O)c(O)c1C2=O [Compound 38] | – | – | 1600 nM | 1.8 nM |
| COc1ncc(CNC(=O)c2cn3c(c(O)c2=O)C(=O)[C@@]2(C)CCCO[C@H]2C3)cc1Cl (single isomer, unassigned) [Compound 32] | 8.2 nM | > 8400 nM | – | – |
| COCCCO[C@@]12CCCC[C@]1(C)C(=O)c1c(O)c(=O)c(C(=O)NCc3ccc(F)cc3F)cn1C2 [Compound 116] | 2.3 nM | 256 nM | – | – |
| COCC[C@]1(C)C(=O)c2c(O)c(=O)c(C(=O)NCc3cccc(Cl)c3F)cn2C[C@@H]1OC [Compound 64] | 0.9 nM | – | 2960 nM | – |
| COC[C@]1(C)C(=O)c2c(O)c(=O)c(C(=O)NCc3ccc(F)cc3F)cn2C[C@@H]1OC [Compound 55] | – | – | > 8400 nM | 8.1 nM |
| C[C@]12CC=CCO[C@@H]1Cn1cc(C(=O)NCc3ccc(F)cc3F)c(=O)c(O)c1C2=O [Compound 49] | 3.2 nM | – | 4070 nM | – |
| C[C@@]12CCCO[C@@H]1Cn1cc(C(=O)NCc3ccc(F)cc3)c(=O)c(O)c1C2=O (single isomer, unassigned) [Compound 18] | 8.7 nM | 315 nM | – | – |
| COCCC[C@]1(C)C(=O)c2c(O)c(=O)c(C(=O)NCc3cccc(Cl)c3F)cn2C[C@@H]1OC [Compound 78] | 0.8 nM | – | 15 nM | – |
| Cc1c(F)ccc(CNC(=O)c2cn3c(c(O)c2=O)C(=O)[C@@]2(C)CCCO[C@H]2C3)c1F (single isomer, unassigned) [Compound 27] | 2 nM | > 8400 nM | – | – |

| SMILES | IC50 [1] | IC50 [2] | IC50 [3] | IC50 [4] |
| --- | --- | --- | --- | --- |
| COCCC[C@@]1(C)C(=O)c2c(O)c(=O)c(C(=O)NCc3ccccc3F)cn2C[C@@H]1OC [Compound 88] | 2.3 nM | 63 nM | – | – |
| C[C@@]12COCO[C@H]1Cn1cc(C(=O)NCc3ccc(F)cc3F)c(=O)c(O)c1C2=O [Compound 11] | 3.2 nM | 484 nM | – | – |
| C[C@]12CCCCO[C@@H]1Cn1cc(C(=O)NCc3cccc(Cl)c3F)c(=O)c(O)c1C2=O (single isomer, unassigned) [Compound 46] | – | – | 459 nM | 1.3 nM |
| C[C@]12CCCO[C@@H]1Cn1cc(C(=O)NCc3cccc(Cl)c3F)c(=O)c(O)c1C2=O (single isomer, unassigned) [Compound 36] | – | – | 1400 nM | 0.6 nM |
| Cc1cc(CNC(=O)c2cn3c(c(O)c2=O)C(=O)[C@@]2(C)CCCO[C@H]2C3)ccc1F (single isomer, unassigned) [Compound 24] | 4.3 nM | > 8400 nM | – | – |
| C[C@@]12CCCCO[C@@H]1Cn1cc(C(=O)NCc3c(F)cc(F)cc3F)c(=O)c(O)c1C2=O (single isomer, unassigned) [Compound 42] | – | – | 517 nM | 2.1 nM |
| C[C@]12CCCCC[C@@]1(O)Cn1cc(C(=O)NCc3ccc(F)cc3F)c(=O)c(O)c1C2=O [Compound 101] | 2.1 nM | 105 nM | – | – |
| COCCC[C@]1(C)C(=O)c2c(O)c(=O)c(C(=O)NCc3c(F)cc(F)cc3F)cn2C[C@@H]1OC [Compound 91] | – | – | 273 nM | 3.8 nM |
| C[C@]12CCCN[C@H]1Cn1cc(C(=O)NCc3ccc(F)cc3F)c(=O)c(O)c1C2=O [Compound 121] | 2.6 nM | 62 nM | – | – |
| COCCC[C@]1(C)C(=O)c2c(O)c(=O)c(C(=O)NCc3c(F)cccc3F)cn2C[C@@H]1OC [Compound 83] | – | – | 19 nM | 0.9 nM |
| COCO[C@]12CCCC[C@@]1(C)C(=O)c1c(O)c(=O)c(C(=O)NCc3ccc(F)cc3F)cn1C2 [Compound 111] | 3 nM | 858 nM | – | – |
| C[C@]12CC=CCO[C@@H]1Cn1cc(C(=O)NCc3ccc(F)cc3F)c(=O)c(O)c1C2=O [Compound 50] | – | – | 293 nM | 1.6 nM |
| C[C@]12CCCC[C@@]1(O)Cn1cc(C(=O)NCc3ccc(F)cc3F)c(=O)c(O)c1C2=O [Compound 95] | 2.2 nM | 41 nM | – | – |
| C[C@]12CCCO[C@@H]1Cn1cc(C(=O)NCc3ccc(F)cc3F)c(=O)c(O)c1C2=O (racemic) [Compound 9] | 2.6 nM | 235 nM | – | – |
| COCCC[C@]1(C)C(=O)c2c(O)c(=O)c(C(=O)NCc3ccc(F)cc3F)cn2C[C@@H]1OC [Compound 74] | – | – | 262 nM | 4 nM |
| CO[C@@]12CCCC[C@]1(C)C(=O)c1c(O)c(=O)c(C(=O)NCc3ccc(F)cc3F)cn1C2 [Compound 112] | 0.65 nM | 4110 nM | – | – |
| COCCC[C@@]1(C)C(=O)c2c(O)c(=O)c(C(=O)NCc3cccc(Cl)c3F)cn2C[C@@H]1OC [Compound 81] | – | – | 296 nM | 1 nM |
| COCC[C@]1(C)C(=O)c2c(O)c(=O)c(C(=O)NCc3c(F)cccc3F)cn2C[C@@H]1OC [Compound 73] | – | – | 22 nM | 1 nM |
